Data: PubChem BioAssay (NCI)
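All cell lines were grown in 96-well plates and treated with compound for 48 hours. At the TGI there is no net growth.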

Tests used:
Assay in all cases: NCI-60 cell line screen, 48 h
[1] = test system: BT-549 breast
[2] = test system: PC-3 prostate
[3] = test system: UACC-62 melanoma
[4] = test system: MDA-MB-231 breast
[5] = test system: SK-OV-3 ovarian
[6] = test system: SK-MEL-5 melanoma
[7] = test system: COLO 205 colon
[8] = test system: SNB-75 CNS
[9] = test system: HOP-92 NSCLC
[10] = test system: MDA-MB-435
[11] = test system: SK-MEL-2 melanoma
[12] = test system: UACC-257 melanoma
[13] = test system: LOX IMVI melanoma
[14] = test system: HCT-116 colon
[15] = test system: 786-0 renal
[16] = test system: EKVX NSCLC
[17] = test system: OVCAR-8 ovarian
[18] = test system: HS 578T breast
[19] = test system: HCT-15 colon
[20] = test system: NCI-H23 lung
[21] = test system: MOLT-4 leukemia
[22] = test system: K-562 leukemia
[23] = test system: SN12C renal
[24] = test system: ACHN renal
[25] = test system: HOP-62 NSCLC
[26] = test system: SF-295 CNS
[27] = test system: SK-MEL-28 melanoma
[28] = test system: MDA-N
[29] = test system: M14 melanoma
[30] = test system: NCI/ADR-RES ovarian
[31] = test system: A549 NSCLC
[32] = test system: IGROV1 ovarian
[33] = test system: T-47D breast
[34] = test system: MALME-3M melanoma
[35] = test system: MCF7 breast
[36] = test system: SF-268 CNS
[37] = test system: TK-10 renal
[38] = test system: SF-539 CNS
[39] = test system: HT29 colon
[40] = test system: OVCAR-4 ovarian
[41] = test system: NCI-H522 lung
[42] = test system: NCI-H226 lung
[43] = test system: OVCAR-5 ovarian
[44] = test system: NCI-H460 lung
[45] = test system: A498 renal
[46] = test system: RXF 393 renal
[47] = test system: SW-620 colon
[48] = test system: U251 CNS
[49] = test system: RPMI-8226 leukemia
[50] = test system: SNB-19 CNS
[51] = test system: HCC-2998 colon
[52] = test system: CAKI-1 renal
[53] = test system: UO-31 renal
[54] = test system: SR leukemia
[55] = test system: KM12 colon
[56] = test system: DU-145 prostate
[57] = test system: OVCAR-3 ovarian
[58] = test system: CCRF-CEM leukemia
[59] = test system: HL-60(TB) leukemia

CC[C@H](C)[C@H](NC(=O)[C@H](Cc1ccc(O)cc1)NCC(F)(F)F)C(=O)OC(C)(C)C
TGI [1]: 34.7 µM | TGI [2]: 14.1 µM | TGI [3]: 12.9 µM | TGI [4]: 15.5 µM | TGI [5]: 17.3 µM | TGI [6]: 15.3 µM | TGI [7]: 18.4 µM | TGI [8]: 17.5 µM | TGI [9]: 18.8 µM | TGI [10]: 14.8 µM | TGI [11]: 13.9 µM | TGI [12]: 14.7 µM | TGI [13]: 17.5 µM | TGI [14]: 16.6 µM | TGI [15]: 16.1 µM | TGI [16]: 15.1 µM | TGI [17]: 29.8 µM | TGI [18]: 31.5 µM | TGI [19]: 34.2 µM | TGI [20]: 20.5 µM | TGI [21]: 22 µM | TGI [22]: 27.2 µM | TGI [23]: 17.3 µM | TGI [24]: 13.9 µM | TGI [25]: 20.5 µM | TGI [26]: 15.2 µM | TGI [27]: 19.1 µM | TGI [28]: 17.7 µM | TGI [29]: 15.1 µM | TGI [30]: 50 µM | TGI [31]: 13 µM | TGI [32]: 16.4 µM | TGI [33]: 18.3 µM | TGI [34]: 22.1 µM | TGI [35]: 19.4 µM | TGI [36]: 24.6 µM | TGI [37]: 15.4 µM | TGI [38]: 21 µM | TGI [39]: 16.3 µM | TGI [40]: 13.3 µM | TGI [41]: 20.1 µM | TGI [42]: 18.8 µM | TGI [43]: 18 µM | TGI [44]: 14.1 µM | TGI [45]: 14.8 µM | TGI [46]: 17.7 µM | TGI [47]: 23 µM | TGI [48]: 13.7 µM | TGI [49]: 23.5 µM | TGI [50]: 15.8 µM | TGI [51]: 15.8 µM | TGI [52]: 15.7 µM | TGI [53]: 14.8 µM | TGI [54]: 20.8 µM | TGI [55]: 18.7 µM

Nc1ccc(-c2nnc(-c3c(Cl)c(Cl)c(Cl)c(Cl)c3-c3nc4ccc(C(=O)c5ccccc5)cc4[nH]3)o2)cc1
TGI [56]: 90.5 µM | TGI [1]: > 100 µM | TGI [2]: 49.9 µM | TGI [4]: 55.4 µM | TGI [5]: 84.2 µM | TGI [6]: 26.4 µM | TGI [57]: 62.6 µM | TGI [7]: 50.2 µM | TGI [8]: 69.2 µM | TGI [9]: > 100 µM | TGI [10]: 75.8 µM | TGI [11]: 88.3 µM | TGI [12]: > 100 µM | TGI [13]: > 100 µM | TGI [14]: 56.9 µM | TGI [15]: 36.1 µM | TGI [16]: 87.7 µM | TGI [17]: > 100 µM | TGI [18]: > 100 µM | TGI [19]: 61 µM | TGI [20]: > 100 µM | TGI [21]: 66.7 µM | TGI [22]: 31.6 µM | TGI [23]: 37.7 µM | TGI [24]: > 100 µM | TGI [25]: 79.9 µM | TGI [26]: 58.5 µM | TGI [27]: > 100 µM | TGI [28]: 19 µM | TGI [29]: 34.8 µM | TGI [30]: 41 µM | TGI [31]: > 100 µM | TGI [32]: > 100 µM | TGI [33]: 78.5 µM | TGI [34]: > 100 µM | TGI [35]: 76.2 µM | TGI [36]: > 100 µM | TGI [37]: 77.6 µM | TGI [38]: 29.3 µM | TGI [39]: 40.8 µM | TGI [40]: > 100 µM | TGI [41]: 47.9 µM | TGI [42]: 41.2 µM | TGI [43]: 89 µM | TGI [58]: 70.3 µM | TGI [45]: 63.2 µM | TGI [46]: 43.2 µM | TGI [47]: > 100 µM | TGI [48]: 47.4 µM | TGI [49]: 31.8 µM | TGI [50]: 67.4 µM | TGI [52]: > 100 µM | TGI [53]: > 100 µM | TGI [54]: 28.2 µM | TGI [55]: > 100 µM

O=C(O)CSc1nc2ccccc2[nH]1
TGI [56]: > 100 µM | TGI [1]: > 100 µM | TGI [2]: > 100 µM | TGI [3]: > 100 µM | TGI [4]: > 100 µM | TGI [57]: > 100 µM | TGI [8]: > 100 µM | TGI [9]: > 100 µM | TGI [10]: > 100 µM | TGI [11]: > 100 µM | TGI [12]: > 100 µM | TGI [13]: > 100 µM | TGI [14]: > 100 µM | TGI [15]: > 100 µM | TGI [16]: > 100 µM | TGI [17]: > 100 µM | TGI [18]: > 100 µM | TGI [19]: > 100 µM | TGI [20]: > 100 µM | TGI [21]: > 100 µM | TGI [22]: > 100 µM | TGI [23]: > 100 µM | TGI [24]: > 100 µM | TGI [25]: > 100 µM | TGI [26]: > 100 µM | TGI [27]: > 100 µM | TGI [28]: > 100 µM | TGI [29]: > 100 µM | TGI [30]: > 100 µM | TGI [31]: > 100 µM | TGI [32]: > 100 µM | TGI [33]: > 100 µM | TGI [34]: > 100 µM | TGI [36]: > 100 µM | TGI [37]: > 100 µM | TGI [39]: > 100 µM | TGI [40]: > 100 µM | TGI [41]: > 100 µM | TGI [43]: > 100 µM | TGI [44]: > 100 µM | TGI [45]: > 100 µM | TGI [46]: > 100 µM | TGI [47]: > 100 µM | TGI [48]: > 100 µM | TGI [50]: > 100 µM | TGI [51]: > 100 µM | TGI [52]: > 100 µM | TGI [53]: > 100 µM | TGI [54]: > 100 µM | TGI [55]: > 100 µM

CC1(C)CCCCC1/C=C/C(CC(O)(C(F)(F)F)C(F)(F)F)=N\Nc1ccc([N+](=O)[O-])cc1[N+](=O)[O-] (stereo unspecified)
TGI [56]: 13.4 µM | TGI [1]: 1.99 µM | TGI [2]: 5.32 µM | TGI [3]: 13.9 µM | TGI [4]: 9.62 µM | TGI [5]: 14.8 µM | TGI [6]: 1.24 µM | TGI [57]: 14.5 µM | TGI [7]: 10.8 µM | TGI [8]: 11.7 µM | TGI [10]: 7.9 µM | TGI [11]: 30 µM | TGI [12]: 7.55 µM | TGI [13]: 10.6 µM | TGI [14]: 6.2 µM | TGI [15]: 4.7 µM | TGI [17]: 14.7 µM | TGI [18]: 40.6 µM | TGI [19]: > 100 µM | TGI [20]: 0.778 µM | TGI [21]: 5.78 µM | TGI [22]: 11.1 µM | TGI [23]: 31.7 µM | TGI [24]: 3.17 µM | TGI [25]: 10.7 µM | TGI [26]: 9.01 µM | TGI [27]: 18.8 µM | TGI [28]: 11.9 µM | TGI [29]: 17.2 µM | TGI [30]: > 100 µM | TGI [31]: 3.59 µM | TGI [32]: 15.8 µM | TGI [33]: 2.99 µM | TGI [34]: 48.3 µM | TGI [35]: 5.42 µM | TGI [36]: 3 µM | TGI [59]: > 100 µM | TGI [37]: 15.5 µM | TGI [38]: 0.973 µM | TGI [39]: 11.3 µM | TGI [40]: 18.7 µM | TGI [41]: 13.1 µM | TGI [42]: 2.81 µM | TGI [43]: 13.1 µM | TGI [58]: 4.91 µM | TGI [44]: 6.73 µM | TGI [45]: 6.96 µM | TGI [46]: 1.85 µM | TGI [47]: 11.4 µM | TGI [48]: 10.7 µM | TGI [49]: 1.27 µM | TGI [50]: 19 µM | TGI [51]: > 100 µM | TGI [53]: 4.15 µM | TGI [54]: > 100 µM | TGI [55]: 9.75 µM
